Laboratory results published in PMC7026418, “The kinase polypharmacology landscape of clinical PARP inhibitors” (Scientific Reports, 2020).
Like-named read-outs stand apart in the source and are kept apart here. Each block holds one compound with its values, some of them ahead of it.

Tests used:
Test in all cases: biochemical
Parameters in all cases: DiscoveRx KINOMEscan active site-directed competition binding; percent of control kinase bound to immobilised ligand
STK36 = biological target: T1, STK36 (Homo sapiens, UniProt Q9NRP7)
T1 sequence (Q9NRP7 1-1315): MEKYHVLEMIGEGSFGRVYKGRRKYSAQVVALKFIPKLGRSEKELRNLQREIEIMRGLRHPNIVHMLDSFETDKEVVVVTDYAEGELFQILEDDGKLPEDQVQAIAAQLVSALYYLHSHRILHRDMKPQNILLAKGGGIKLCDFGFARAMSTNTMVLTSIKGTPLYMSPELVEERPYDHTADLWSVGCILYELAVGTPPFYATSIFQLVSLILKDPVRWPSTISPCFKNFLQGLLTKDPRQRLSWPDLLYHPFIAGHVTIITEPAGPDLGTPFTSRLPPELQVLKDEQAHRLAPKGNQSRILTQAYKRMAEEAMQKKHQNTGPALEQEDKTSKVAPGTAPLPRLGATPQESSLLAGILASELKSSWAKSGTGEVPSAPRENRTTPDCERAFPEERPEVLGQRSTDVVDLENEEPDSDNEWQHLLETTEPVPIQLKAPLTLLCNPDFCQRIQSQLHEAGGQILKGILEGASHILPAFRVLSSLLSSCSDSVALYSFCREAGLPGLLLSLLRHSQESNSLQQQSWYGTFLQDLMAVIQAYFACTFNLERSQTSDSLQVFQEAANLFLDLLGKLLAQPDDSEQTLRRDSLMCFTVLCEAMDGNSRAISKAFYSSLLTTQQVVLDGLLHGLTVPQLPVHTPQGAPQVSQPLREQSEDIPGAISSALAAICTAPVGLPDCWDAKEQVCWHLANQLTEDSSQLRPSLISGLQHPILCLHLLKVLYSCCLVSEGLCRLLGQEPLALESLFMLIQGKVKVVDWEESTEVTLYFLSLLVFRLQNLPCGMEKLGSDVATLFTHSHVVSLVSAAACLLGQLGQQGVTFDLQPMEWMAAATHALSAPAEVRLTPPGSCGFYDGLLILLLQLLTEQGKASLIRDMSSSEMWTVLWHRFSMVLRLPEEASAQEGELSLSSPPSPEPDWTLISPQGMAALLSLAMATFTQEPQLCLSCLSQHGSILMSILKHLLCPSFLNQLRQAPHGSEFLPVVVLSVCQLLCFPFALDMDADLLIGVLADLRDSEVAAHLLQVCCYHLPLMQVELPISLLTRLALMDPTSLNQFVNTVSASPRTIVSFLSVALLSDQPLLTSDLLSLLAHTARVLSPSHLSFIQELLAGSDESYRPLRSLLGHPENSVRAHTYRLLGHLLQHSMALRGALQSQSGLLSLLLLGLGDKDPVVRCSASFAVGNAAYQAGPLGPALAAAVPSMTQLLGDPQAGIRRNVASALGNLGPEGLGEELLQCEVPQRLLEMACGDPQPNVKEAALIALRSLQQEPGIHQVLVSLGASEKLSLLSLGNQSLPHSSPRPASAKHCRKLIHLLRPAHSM

EPHA5 = EPHA5 (Homo sapiens, UniProt P54756)
Chain of EPHA5 (P54756 whole entry): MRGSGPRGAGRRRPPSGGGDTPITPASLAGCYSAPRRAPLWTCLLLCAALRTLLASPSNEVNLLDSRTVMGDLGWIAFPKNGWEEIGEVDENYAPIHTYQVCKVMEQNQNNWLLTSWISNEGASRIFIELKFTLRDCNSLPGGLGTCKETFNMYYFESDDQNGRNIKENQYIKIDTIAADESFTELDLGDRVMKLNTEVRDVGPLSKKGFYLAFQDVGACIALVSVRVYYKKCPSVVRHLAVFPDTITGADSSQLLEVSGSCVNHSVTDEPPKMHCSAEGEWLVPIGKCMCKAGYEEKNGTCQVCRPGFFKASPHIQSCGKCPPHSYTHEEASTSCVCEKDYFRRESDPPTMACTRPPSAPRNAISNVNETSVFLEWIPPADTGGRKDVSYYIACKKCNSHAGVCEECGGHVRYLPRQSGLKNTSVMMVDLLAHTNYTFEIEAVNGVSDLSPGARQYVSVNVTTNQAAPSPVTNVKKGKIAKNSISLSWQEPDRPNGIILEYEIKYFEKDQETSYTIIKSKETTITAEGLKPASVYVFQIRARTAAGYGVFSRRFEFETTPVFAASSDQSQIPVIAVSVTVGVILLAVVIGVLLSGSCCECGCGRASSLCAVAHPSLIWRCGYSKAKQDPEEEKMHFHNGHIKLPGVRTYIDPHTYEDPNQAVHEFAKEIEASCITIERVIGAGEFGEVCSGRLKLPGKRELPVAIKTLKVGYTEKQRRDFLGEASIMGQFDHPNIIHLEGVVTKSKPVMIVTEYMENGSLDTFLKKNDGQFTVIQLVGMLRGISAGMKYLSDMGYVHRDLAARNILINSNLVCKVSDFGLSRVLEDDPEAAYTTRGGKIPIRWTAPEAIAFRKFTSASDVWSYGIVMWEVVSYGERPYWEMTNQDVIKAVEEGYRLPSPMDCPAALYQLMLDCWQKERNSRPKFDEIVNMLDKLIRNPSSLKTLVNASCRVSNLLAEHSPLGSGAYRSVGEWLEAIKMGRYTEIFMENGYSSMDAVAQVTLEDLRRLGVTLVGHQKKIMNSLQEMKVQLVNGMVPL

WNK2 = WNK2 (Homo sapiens, UniProt Q9Y3S1)
[1] = biological target: EGFR(L747-E749del, A750P) (Homo sapiens, UniProt P00533, A750P/DEL747-749)
[2] = biological target: T2, ABL1(E255K)-phosphorylated (Homo sapiens, UniProt P00519, E255K)
T2 construct: phosphorylated
T2 sequence (P00519 whole entry E255K): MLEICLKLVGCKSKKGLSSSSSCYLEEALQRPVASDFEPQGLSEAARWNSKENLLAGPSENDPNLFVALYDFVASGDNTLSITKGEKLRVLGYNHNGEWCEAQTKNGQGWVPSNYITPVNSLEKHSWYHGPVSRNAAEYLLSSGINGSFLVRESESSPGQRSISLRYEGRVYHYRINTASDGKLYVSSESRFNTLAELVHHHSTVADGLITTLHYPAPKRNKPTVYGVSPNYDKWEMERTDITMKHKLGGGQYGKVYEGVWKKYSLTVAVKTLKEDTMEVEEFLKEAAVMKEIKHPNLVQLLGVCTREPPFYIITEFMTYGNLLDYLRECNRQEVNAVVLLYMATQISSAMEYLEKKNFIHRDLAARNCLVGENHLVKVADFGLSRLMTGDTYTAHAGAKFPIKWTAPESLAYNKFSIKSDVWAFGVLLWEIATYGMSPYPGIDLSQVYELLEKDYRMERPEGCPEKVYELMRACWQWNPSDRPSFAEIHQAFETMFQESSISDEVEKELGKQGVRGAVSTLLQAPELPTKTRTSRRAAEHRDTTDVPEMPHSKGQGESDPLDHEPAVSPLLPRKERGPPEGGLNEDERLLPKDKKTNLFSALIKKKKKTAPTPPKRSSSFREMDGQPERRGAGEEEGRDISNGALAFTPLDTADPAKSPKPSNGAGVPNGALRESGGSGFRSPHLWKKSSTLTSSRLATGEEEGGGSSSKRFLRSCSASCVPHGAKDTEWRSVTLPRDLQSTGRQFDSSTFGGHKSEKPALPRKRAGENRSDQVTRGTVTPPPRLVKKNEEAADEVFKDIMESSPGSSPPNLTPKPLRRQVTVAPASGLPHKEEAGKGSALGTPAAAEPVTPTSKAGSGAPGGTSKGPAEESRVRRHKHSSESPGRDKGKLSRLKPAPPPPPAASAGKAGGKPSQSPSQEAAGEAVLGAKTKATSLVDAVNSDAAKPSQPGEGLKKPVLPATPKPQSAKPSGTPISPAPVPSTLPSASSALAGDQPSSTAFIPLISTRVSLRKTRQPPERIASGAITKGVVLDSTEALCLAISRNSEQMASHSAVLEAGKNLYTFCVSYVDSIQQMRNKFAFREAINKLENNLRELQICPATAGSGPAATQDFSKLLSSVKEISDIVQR

ADCK3 = biological target: T3, ADCK3 (Homo sapiens, UniProt Q8NI60)
T3 construct: gene COQ8A
T3 sequence (Q8NI60 whole entry): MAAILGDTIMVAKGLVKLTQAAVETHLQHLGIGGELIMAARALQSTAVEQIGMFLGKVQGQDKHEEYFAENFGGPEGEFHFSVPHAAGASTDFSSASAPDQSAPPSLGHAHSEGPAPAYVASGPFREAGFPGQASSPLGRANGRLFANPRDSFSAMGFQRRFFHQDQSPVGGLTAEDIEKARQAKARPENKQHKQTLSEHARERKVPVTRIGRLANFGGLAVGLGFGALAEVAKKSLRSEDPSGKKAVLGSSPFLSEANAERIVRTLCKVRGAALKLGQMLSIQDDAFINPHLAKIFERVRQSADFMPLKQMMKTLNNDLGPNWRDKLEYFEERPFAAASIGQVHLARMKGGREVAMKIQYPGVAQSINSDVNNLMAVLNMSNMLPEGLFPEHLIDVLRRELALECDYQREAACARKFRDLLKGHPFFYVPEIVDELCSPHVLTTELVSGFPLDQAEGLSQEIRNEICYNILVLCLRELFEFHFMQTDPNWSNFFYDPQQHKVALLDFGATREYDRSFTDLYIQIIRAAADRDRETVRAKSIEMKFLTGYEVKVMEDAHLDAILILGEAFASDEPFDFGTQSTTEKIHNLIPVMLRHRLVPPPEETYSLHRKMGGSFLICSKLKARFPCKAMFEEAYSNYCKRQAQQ

CAMK2G = CAMK2G (Homo sapiens, UniProt Q13555)
Chain of CAMK2G (Q13555 whole entry): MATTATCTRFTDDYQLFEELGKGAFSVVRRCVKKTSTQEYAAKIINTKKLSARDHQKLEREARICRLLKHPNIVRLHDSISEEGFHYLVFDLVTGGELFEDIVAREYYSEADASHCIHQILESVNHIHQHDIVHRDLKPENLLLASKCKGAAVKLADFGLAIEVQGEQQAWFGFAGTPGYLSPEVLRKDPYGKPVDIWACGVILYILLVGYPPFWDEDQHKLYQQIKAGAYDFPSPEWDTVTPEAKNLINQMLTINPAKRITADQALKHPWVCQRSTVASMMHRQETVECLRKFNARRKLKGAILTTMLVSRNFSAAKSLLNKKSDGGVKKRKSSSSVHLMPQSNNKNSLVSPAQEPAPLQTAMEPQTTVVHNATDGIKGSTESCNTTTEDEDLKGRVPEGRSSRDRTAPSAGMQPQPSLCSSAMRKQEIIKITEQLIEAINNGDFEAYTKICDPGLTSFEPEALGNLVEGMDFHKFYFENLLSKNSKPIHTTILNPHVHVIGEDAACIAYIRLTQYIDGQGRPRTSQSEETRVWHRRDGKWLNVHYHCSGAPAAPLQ

NEK6 = NEK6 (Homo sapiens, UniProt Q9HC98)
Chain of NEK6 (Q9HC98 whole entry): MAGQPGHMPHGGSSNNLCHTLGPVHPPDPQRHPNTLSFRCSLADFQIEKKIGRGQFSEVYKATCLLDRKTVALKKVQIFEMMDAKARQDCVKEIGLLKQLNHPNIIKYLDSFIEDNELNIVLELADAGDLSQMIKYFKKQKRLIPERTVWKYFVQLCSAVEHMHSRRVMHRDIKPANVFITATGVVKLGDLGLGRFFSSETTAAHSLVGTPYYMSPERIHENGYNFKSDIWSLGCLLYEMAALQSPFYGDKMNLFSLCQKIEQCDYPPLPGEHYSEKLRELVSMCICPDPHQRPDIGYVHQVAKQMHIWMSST

PRKCQ = PRKCQ (Homo sapiens, UniProt Q04759)
Chain of PRKCQ (Q04759 whole entry): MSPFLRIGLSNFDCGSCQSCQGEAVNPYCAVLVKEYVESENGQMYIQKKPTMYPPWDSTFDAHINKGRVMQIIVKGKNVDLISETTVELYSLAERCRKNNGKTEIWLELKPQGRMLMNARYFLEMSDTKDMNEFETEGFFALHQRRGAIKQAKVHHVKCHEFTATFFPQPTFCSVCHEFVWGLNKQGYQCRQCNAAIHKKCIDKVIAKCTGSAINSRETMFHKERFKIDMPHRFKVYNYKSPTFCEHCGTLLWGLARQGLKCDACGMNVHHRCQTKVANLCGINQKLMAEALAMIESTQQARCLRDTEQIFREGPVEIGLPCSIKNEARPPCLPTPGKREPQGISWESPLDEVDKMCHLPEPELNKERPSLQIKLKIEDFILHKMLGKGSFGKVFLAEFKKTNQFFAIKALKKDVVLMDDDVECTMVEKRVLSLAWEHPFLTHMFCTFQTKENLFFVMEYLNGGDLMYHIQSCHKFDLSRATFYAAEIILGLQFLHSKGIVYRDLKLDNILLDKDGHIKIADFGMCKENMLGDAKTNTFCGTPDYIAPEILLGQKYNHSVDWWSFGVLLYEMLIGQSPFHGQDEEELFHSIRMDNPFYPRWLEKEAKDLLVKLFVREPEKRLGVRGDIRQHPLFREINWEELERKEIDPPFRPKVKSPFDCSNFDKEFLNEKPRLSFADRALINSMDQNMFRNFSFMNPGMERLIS

CAMKK1 = CAMKK1 (Homo sapiens, UniProt Q8N5S9)
Chain of CAMKK1 (Q8N5S9 whole entry): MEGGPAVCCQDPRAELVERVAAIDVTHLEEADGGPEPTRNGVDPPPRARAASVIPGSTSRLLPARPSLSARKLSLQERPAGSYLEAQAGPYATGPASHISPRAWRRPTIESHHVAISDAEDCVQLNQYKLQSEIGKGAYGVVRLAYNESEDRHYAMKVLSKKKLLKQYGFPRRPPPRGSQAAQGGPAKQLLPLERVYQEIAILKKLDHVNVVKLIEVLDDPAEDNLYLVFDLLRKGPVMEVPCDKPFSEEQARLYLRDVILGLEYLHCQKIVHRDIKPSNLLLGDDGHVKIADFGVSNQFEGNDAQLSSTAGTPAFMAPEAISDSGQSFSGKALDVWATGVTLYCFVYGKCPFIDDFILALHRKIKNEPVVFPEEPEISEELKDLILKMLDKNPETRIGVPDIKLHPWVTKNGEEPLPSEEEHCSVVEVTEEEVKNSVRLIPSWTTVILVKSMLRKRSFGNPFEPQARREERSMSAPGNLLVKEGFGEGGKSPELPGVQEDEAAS

PDPK1 = biological target: T4, PDPK1 (Homo sapiens, UniProt O15530)
T4 sequence (O15530 1-556): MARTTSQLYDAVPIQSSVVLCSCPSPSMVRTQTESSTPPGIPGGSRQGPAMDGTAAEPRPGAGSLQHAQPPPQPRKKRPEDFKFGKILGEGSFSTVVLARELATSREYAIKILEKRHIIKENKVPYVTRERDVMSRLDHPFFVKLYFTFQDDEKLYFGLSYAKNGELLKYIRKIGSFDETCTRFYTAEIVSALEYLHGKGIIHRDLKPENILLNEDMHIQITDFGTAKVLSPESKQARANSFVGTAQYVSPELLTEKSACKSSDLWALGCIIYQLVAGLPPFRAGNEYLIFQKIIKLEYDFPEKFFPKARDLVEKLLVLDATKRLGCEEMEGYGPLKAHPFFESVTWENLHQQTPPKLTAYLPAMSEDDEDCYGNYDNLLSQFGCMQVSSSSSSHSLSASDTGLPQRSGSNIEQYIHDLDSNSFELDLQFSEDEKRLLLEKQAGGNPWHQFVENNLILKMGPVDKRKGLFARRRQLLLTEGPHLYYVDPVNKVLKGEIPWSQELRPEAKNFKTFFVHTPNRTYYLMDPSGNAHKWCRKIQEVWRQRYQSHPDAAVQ

[3] = read-out: Niraparib (MK-4827) / %Ctrl @ 10000nM
[4] = read-out: Olaparib / %Ctrl @ 10000nM
[5] = read-out: Rucaparib / %Ctrl @ 10000nM, binding competition, % of control
[6] = read-out: Talazoparib (BMN 673) / %Ctrl @ 10000nM

Compound: NC(=O)c1cccc2cn(-c3ccc([C@@H]4CCCNC4)cc3)nc12 [Niraparib]
percent of control binding at 10 µM (STK36; [3]): 88%
percent of control binding at 10 µM (EPHA5; [3]): 94%
percent of control binding at 10 µM (WNK2; [3]): 100%
percent of control binding at 10 µM [1, 3]: 65%
percent of control binding at 10 µM [2, 3]: 64%
percent of control binding at 10 µM (ADCK3; [3]): 57%
percent of control binding at 10 µM (CAMK2G; [3]): 95%
percent of control binding at 10 µM (NEK6; [3]): 100%
percent of control binding at 10 µM (PRKCQ; [3]): 73%
percent of control binding at 10 µM (CAMKK1; [3]): 88%
percent of control binding at 10 µM (PDPK1; [3]): 80%

percent of control binding at 10 µM (STK36; [4]): 96%
percent of control binding at 10 µM (EPHA5; [4]): 96%
percent of control binding at 10 µM (WNK2; [4]): 76%
percent of control binding at 10 µM [1, 4]: 82%
percent of control binding at 10 µM [2, 4]: 89%
percent of control binding at 10 µM (ADCK3; [4]): 99%
percent of control binding at 10 µM (CAMK2G; [4]): 100%
percent of control binding at 10 µM (NEK6; [4]): 96%
percent of control binding at 10 µM (PRKCQ; [4]): 95%
percent of control binding at 10 µM (CAMKK1; [4]): 88%
percent of control binding at 10 µM (PDPK1; [4]): 100%
Compound: O=C(c1cc(Cc2n[nH]c(=O)c3ccccc23)ccc1F)N1CCN(C(=O)C2CC2)CC1 [Olaparib]

percent of control binding at 10 µM (STK36; [5]): 69%
percent of control binding at 10 µM (EPHA5; [5]): 93%
percent of control binding at 10 µM (WNK2; [5]): 66%
percent of control binding at 10 µM [1, 5]: 98%
percent of control binding at 10 µM [2, 5]: 91%
percent of control binding at 10 µM (ADCK3; [5]): 69%
percent of control binding at 10 µM (CAMK2G; [5]): 83%
percent of control binding at 10 µM (NEK6; [5]): 89%
percent of control binding at 10 µM (PRKCQ; [5]): 93%
percent of control binding at 10 µM (CAMKK1; [5]): 66%
percent of control binding at 10 µM (PDPK1; [5]): 97%
Compound: CNCc1ccc(-c2[nH]c3cc(F)cc4c3c2CCNC4=O)cc1 [Rucaparib]

percent of control binding at 10 µM (STK36; [6]): 56%
percent of control binding at 10 µM (EPHA5; [6]): 96%
percent of control binding at 10 µM (WNK2; [6]): 100%
percent of control binding at 10 µM [1, 6]: 96%
percent of control binding at 10 µM [2, 6]: 100%
percent of control binding at 10 µM (ADCK3; [6]): 100%
percent of control binding at 10 µM (CAMK2G; [6]): 95%
percent of control binding at 10 µM (NEK6; [6]): 99%
percent of control binding at 10 µM (PRKCQ; [6]): 89%
percent of control binding at 10 µM (CAMKK1; [6]): 97%
percent of control binding at 10 µM (PDPK1; [6]): 85%
Compound: Cn1ncnc1[C@H]1c2n[nH]c(=O)c3cc(F)cc(c23)N[C@@H]1c1ccc(F)cc1 [Talazoparib]
